Legend:
[1] = system: Human immunodeficiency virus 1; test: Anti-HIV activity in acutely infected H9 lymphocytes.; assay type: functional, organism-based
[2] = (§1) Tested for in vitro therapeutic index as the ratio of IC50 to EC50 in acutely infected H9 Lymphocytes; assay type: organism-based, Human immunodeficiency virus 1; conditions: human immunodeficiency virus 1, H9 lymphocytes acutely infected with HIV-1; read-out: TI
[3] = system: Human immunodeficiency virus 1; test: as §1; assay type: organism-based; conditions: Human immunodeficiency virus 1
U-937 = test: Compound was tested for anti-HIV activity in acutely infected U937; assay type: functional, cell-based; conditions: Homo sapiens
[4] = Tested for in vitro therapeutic index as the ratio of IC50 to EC50 in PBMCs; conditions: human, read-out: TI
[5] = Tested for in vitro therapeutic index as the ratio of IC50 to EC50 in acutely infected U937; assay type: cell-based, U-937; conditions: human, acutely infected U937 cells; read-out: TI

| Compound | EC50 ([1]; Human immunodeficiency virus 1) | selectivity ratio [2] | also measured |
| --- | --- | --- | --- |
| CC1(C)Oc2ccc3ccc(=O)oc3c2C(OC(=O)c2cccc(Cl)c2)C1O (stereo not given) | 4.2 µM | 2.4 |  |
| CC(C)(C)c1ccc(C(=O)OC2c3c(ccc4ccc(=O)oc34)OC(C)(C)C2OC(=O)c2ccc(C(C)(C)C)cc2)cc1 (stereo not given) | < 1.4 µM | > 2.2 |  |
| CCC(C)C(=O)OC1c2c(ccc3ccc(=O)oc23)OC(C)(C)C1OC(=O)C(C)CC (stereo not given) | 7 µM | 14.4 |  |
| CC1(C)Oc2ccc3ccc(=O)oc3c2C(N=[N+]=[N-])C1O (stereo not given) | 116 µM | 2.9 |  |
| CC(C)=CC(=O)OC1c2c(ccc3ccc(=O)oc23)OC(C)(C)C1OC(=O)C=C(C)C (stereo not given) | 4.7 µM | 3.5 |  |
| CC1(C)Oc2ccc3ccc(=O)oc3c2C(OC(=O)c2cccc(Cl)c2)C1OCc1ccccc1 (stereo not given) | 3.1 µM | 5 |  |
| COC1C(OC(=O)c2cccc(Cl)c2)c2c(ccc3ccc(=O)oc23)OC1(C)C (stereo not given) | 241 µM | 0.34 |  |
| CC(=O)OC1c2c(ccc3ccc(=O)oc23)OC(C)(C)C1OCc1ccccc1 (stereo not given) | 38 µM | 2.3 |  |
| CC(C)CC(=O)OC1C(OC(=O)c2cccc(Cl)c2)c2c(ccc3ccc(=O)oc23)OC1(C)C (stereo not given) | 9.3 µM | 1.4 |  |
| CC(=O)OC1C(N=[N+]=[N-])c2c(ccc3ccc(=O)oc23)OC1(C)C (stereo not given) | 116 µM | 1 |  |
| CC(C)[C@H]1CC[C@H](C)C[C@@H]1OC(=O)OC1c2c(ccc3ccc(=O)oc23)OC(C)(C)C1OC(=O)O[C@@H]1C[C@H](C)CC[C@H]1C(C)C (stereo not given in full) | 11.4 µM | 2.9 |  |
| CC(C)(C)CC(=O)O[C@@H]1c2c(ccc3ccc(=O)oc23)OC(C)(C)[C@@H]1OC(=O)CC(C)(C)C | 21.8 µM | 2 |  |
| CC1(C)Oc2ccc3ccc(=O)oc3c2C(O)C1OCc1ccccc1 (stereo not given) | 43 µM | 2.7 |  |
| CC1(C)Oc2ccc3ccc(=O)oc3c2[C@@H](OC(=O)C23CCC(C)(C(=O)O2)C3(C)C)[C@H]1OC(=O)C12CCC(C)(C(=O)O1)C2(C)C (mixture of isomers; 16) |  |  | EC50 [1]: 4 µM; TI [3]: 136719; EC50 (U-937): 0.0021 µM; selectivity ratio [4]: 472; selectivity ratio [5]: 11700 |
| CC1(C)Oc2ccc3ccc(=O)oc3c2[C@@H](OC(=O)C23CCC(C)(C(=O)O2)C3(C)C)[C@H]1OC(=O)C12CCC(C)(C(=O)O1)C2(C)C (mixture of isomers; 17) |  |  | EC50 [1]: 145 µM; TI [3]: 1.1 |
| CC1(C)Oc2ccc3ccc(=O)oc3c2C(OC(=O)c2cccc(Cl)c2)C1OC1CCCCO1 (single isomer, unassigned) | 8.3 µM | 10 |  |
| CC(=O)OC1c2c(ccc3ccc(=O)oc23)OC(C)(C)C1OC(C)=O (stereo in doubt; 8) | 69.4 µM |  | TI [3]: 0.4 |
| CC(C)CC(=O)OC1c2c(ccc3ccc(=O)oc23)OC(C)(C)C1OC(=O)CC(C)C (stereo in doubt; 9) |  | 2 | EC50 [1]: 7 µM |
| CC(=O)OC1c2c(ccc3ccc(=O)oc23)OC(C)(C)C1OC(C)=O (stereo in doubt; 37) |  |  | EC50 [1]: 43 µM; TI [3]: 3 |
| CC1(C)Oc2ccc3ccc(=O)oc3c2C(OC(=O)C23CCC(C)(C(=O)O2)C3(C)C)C1OC(=O)C12CCC(C)(C(=O)O1)C2(C)C (stereo in doubt; 38) | 24.1 µM | 3 |  |
| CC1(C)Oc2ccc3ccc(=O)oc3c2C(OC(=O)C23CCC(C)(C(=O)O2)C3(C)C)C1OC(=O)C12CCC(C)(C(=O)O1)C2(C)C (stereo in doubt; 39) |  |  | EC50 [1]: 32 µM; TI [3]: > 5 |
| CC(C)CC(=O)OC1c2c(ccc3ccc(=O)oc23)OC(C)(C)C1OC(=O)CC(C)C (stereo in doubt; 42) |  |  | EC50 [1]: 20.9 µM; TI [3]: 3 |
| C/C=C(\C)C(=O)O[C@@H]1c2c(ccc3ccc(=O)oc23)OC(C)(C)[C@@H]1OC(C)=O [PTERYXIN] | 4.6 µM | 4.5 |  |
| CC1(C)C=Cc2c(ccc3ccc(=O)oc23)O1 [SESALIN] | 3.5 µM | 5 |  |
| CC(=O)O[C@@H]1[C@H](OC(=O)CC(C)C)c2c(ccc3ccc(=O)oc23)OC1(C)C [SUKSDORFIN] | 2.6 µM | 30.6 |  |
| Cc1cn([C@H]2C[C@H](N=[N+]=[N-])[C@@H](CO)O2)c(=O)[nH]c1=O [ZIDOVUDINE] | 0.15 µM | 12500 |  |

From ChEMBL document CHEMBL1127408, “Anti-AIDS agents. 15. Synthesis and anti-HIV activity of dihydroseselins and related analogs” (J Med Chem, 1994)
